Assay results taken from patent US20220370453A1 (Storm Therapeutics Ltd, priority 2019, published 2022).
pIC50: −log10 of the molar value.

Columns and labels:
BCDIN3D [1] = biological target: T1, BCDIN3D (Homo sapiens, UniProt Q7Z5W3); assay: BCDIN3D InCellPulse thermal stability assay in transfected A549 cells; format: cell-based; conditions: transiently transfected A549 cells, heat shock 58° C. 15 min
T1 sequence (Q7Z5W3 1-292): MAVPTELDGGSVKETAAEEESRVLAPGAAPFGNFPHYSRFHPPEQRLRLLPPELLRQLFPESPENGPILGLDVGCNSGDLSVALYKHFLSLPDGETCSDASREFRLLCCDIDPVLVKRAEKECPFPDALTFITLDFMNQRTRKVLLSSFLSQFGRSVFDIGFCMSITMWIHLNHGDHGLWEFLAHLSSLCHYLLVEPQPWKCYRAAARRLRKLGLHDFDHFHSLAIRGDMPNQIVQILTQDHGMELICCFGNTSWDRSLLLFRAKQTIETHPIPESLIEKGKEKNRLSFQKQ
Procedure, shortened: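 A549 cells transiently expressing BCDIN3D N-terminally fused to ePL ProLabel tag, 1500 cells/well, pre-incubated 1 h at 37 °C with compound (0.6% DMSO). Heat shock 58 °C for 15 min; remaining soluble fusion detected by split β-galactosidase complementation luminescence.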

BCDIN3D [2] = biological target: T1, BCDIN3D; assay: BCDIN3D IC50 RFMS (RapidFire) assay with mini-helix; format: biochemical; conditions: mini-helix substrate 0.2 μM, SAM 6 μM, 25 nM enzyme
Procedure, shortened: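 25 nM enzyme preincubated 10 min at room temperature with compound (1% DMSO) in 25 mM Tris pH 8.0, 10 mM DTT, 1 mM EDTA, 0.03% BSA. Reaction started with 0.2 μM mini-helix plus 6 μM SAM, run 1 h at 37 °C, quenched with TCA; SAH product quantified by RapidFire MS against isotopic SAH standards.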

Structure (SMILES) | pIC50 (BCDIN3D [1]) | pIC50 (BCDIN3D [2])
Cn1ncc2c(NCC(C)(C)C)nc(NC[C@H](N)c3ccccc3)nc21 [Compound 4.72, N6-[(2R)-2-amino-2-phenyl-ethyl]-N4-(2,2-dimethylpropyl)-1-methyl-pyrazolo[3,4-d]pyrimidine-4,6-diamine] | 6.50 | 6.81
Cn1ncc2c(NC(C)(C)C(F)(F)F)nc(NC[C@H](N)c3ccccc3)nc21 [Compound 4.75, N6-[(2R)-2-amino-2-phenyl-ethyl]-1-methyl-N4-(2,2,2-trifluoro-1,1-dimethyl-ethyl)pyrazolo[3,4-d]pyrimidine-4,6-diamine] | 6.15 | 6.62
Cn1ncc2c(NC3(C(C)(C)C)CC3)nc(NC[C@H](N)c3ccccc3)nc21 [Compound 4.79, N6-[(2R)-2-amino-2-phenyl-ethyl]-N4-(1-tert-butylcyclopropyl)-1-methyl-pyrazolo[3,4-d]pyrimidine-4,6-diamine] | 5.49 | 5.64
Cn1ncc2c(NC3CC34CC4)nc(NC[C@H](N)c3ccccc3)nc21 (stereo partly drawn) [Compound 4.80, N6-[(2R)-2-amino-2-phenyl-ethyl]-1-methyl-N4-spiro[2.2]pentan-2-yl-pyrazolo[3,4-d]pyrimidine-4,6-diamine] | 6.29 | 6.18
Cn1ncc2c(NC3CC(CO)(CCl)C3)nc(NCC(N)c3ccccc3)nc21 (stereo not shown) [Compound 4.81, [3-[[6-[(2-amino-2-phenyl-ethyl)amino]-1-methyl-pyrazolo[3,4-d]pyrimidin-4-yl]amino]-1-(chloromethyl)cyclobutyl]methanol] | 6.20 | 6.23
Cn1ncc2c(NC3CC(F)(F)C3)nc(NC[C@H](N)c3ccccc3)nc21 [Compound 4.85, N6-[(2R)-2-amino-2-phenyl-ethyl]-N4-(3,3-difluorocyclobutyl)-1-methyl-pyrazolo[3,4-d]pyrimidine-4,6-diamine] | 6.57 | 6.76
Cn1ncc2c(NC3(C)CC(F)(F)C3)nc(NC[C@H](N)c3ccccc3)nc21 [Compound 4.86, N6-[(2R)-2-amino-2-phenyl-ethyl]-N4-(3,3-difluoro-1-methyl-cyclobutyl)-1-methyl-pyrazolo[3,4-d]pyrimidine-4,6-diamine] | 5.84 | 5.80
Cn1ncc2c(N[C@H]3C[C@H](F)C3)nc(NC[C@H](N)c3ccccc3)nc21 [Compound 4.89, N6-[(2R)-2-amino-2-phenyl-ethyl]-N4-(3-fluorocyclobutyl)-1-methyl-pyrazolo[3,4-d]pyrimidine-4,6-diamine] | 6.65 | 6.96
Cn1ncc2c(NC3CC(C#N)C3)nc(NC[C@H](N)c3ccccc3)nc21 (stereo partly drawn) [Compound 4.91, 3-[[6-[[(2R)-2-amino-2-phenyl-ethyl]amino]-1-methyl-pyrazolo[3,4-d]pyrimidin-4-yl]amino]cyclobutanecarbonitrile] | 6.58 | 6.89
Cn1ncc2c(NC3CC(C)(F)C3)nc(NC[C@H](N)c3ccccc3)nc21 (stereo partly drawn) [Compound 4.97, N6-[(2R)-2-amino-2-phenyl-ethyl]-N4-(3-fluoro-3-methyl-cyclobutyl)-1-methyl-pyrazolo[3,4-d]pyrimidine-4,6-diamine] | 6.75 | 7.07
Cn1ncc2c(NC3CC4(CCC4)C3)nc(NC[C@H](N)c3ccccc3)nc21 [Compound 4.99, N6-[(2R)-2-amino-2-phenyl-ethyl]-1-methyl-N4-spiro[3.3]heptan-2-yl-pyrazolo[3,4-d]pyrimidine-4,6-diamine] | 7.77 | 8.10
COCC(C)(C)Nc1nc(NC[C@H](N)c2ccccc2)nc2c1cnn2C [Compound 4.100, N6-[(2R)-2-amino-2-phenyl-ethyl]-N4-(2-methoxy-1,1-dimethyl-ethyl)-1-methyl-pyrazolo[3,4-d]pyrimidine-4,6-diamine] | 5.73 | 5.88

Results, then the compound that gave them:

pIC50 (BCDIN3D [1]) | pIC50 (BCDIN3D [2]) | Structure (SMILES)
6.39 | 6.28 | Cn1ncc2c(NCC(F)F)nc(NC[C@H](N)c3ccccc3)nc21 [Compound 4.73, N6-[(2R)-2-amino-2-phenyl-ethyl]-N4-(2,2-difluoroethyl)-1-methyl-pyrazolo[3,4-d]pyrimidine-4,6-diamine]
6.47 | 6.60 | Cn1ncc2c(NCC(C)(F)F)nc(NC[C@H](N)c3ccccc3)nc21 [Compound 4.74, N6-[(2R)-2-amino-2-phenyl-ethyl]-N4-(2,2-difluoropropyl)-1-methyl-pyrazolo[3,4-d]pyrimidine-4,6-diamine]
6.63 | 6.87 | C[C@H](Nc1nc(NC[C@H](N)c2ccccc2)nc2c1cnn2C)C(F)(F)F [Compound 4.76, N6-[(2R)-2-amino-2-phenyl-ethyl]-1-methyl-N4-[(1S)-2,2,2-trifluoro-1-methyl-ethyl]pyrazolo[3,4-d]pyrimidine-4,6-diamine]
5.71 | 5.56 | Cn1ncc2c(NC3(C)CC3)nc(NC[C@H](N)c3ccccc3)nc21 [Compound 4.77, N6-[(2R)-2-amino-2-phenyl-ethyl]-1-methyl-N4-(1-methylcyclopropyl)pyrazolo[3,4-d]pyrimidine-4,6-diamine]
6.42 | 6.11 | Cn1ncc2c(NC3(C(F)(F)F)CC3)nc(NC[C@H](N)c3ccccc3)nc21 [Compound 4.78, N6-[(2R)-2-amino-2-phenyl-ethyl]-1-methyl-N4-[1-(trifluoromethyl)cyclopropyl]pyrazolo[3,4-d]pyrimidine-4,6-diamine]
7.39 | 7.59 | Cn1ncc2c(NC3CC4(C3)CC(F)(F)C4)nc(NCC(N)c3ccccc3)nc21 (stereo not shown) [Compound 4.82, N6-(2-amino-2-phenyl-ethyl)-N4-(2,2-difluorospiro[3.3]heptan-6-yl)-1-methyl-pyrazolo[3,4-d]pyrimidine-4,6-diamine]
7.03 | 7.12 | Cn1ncc2c(NC3CCC3)nc(NC[C@H](N)c3ccccc3)nc21 [Compound 4.83, N6-[(2R)-2-amino-2-phenyl-ethyl]-N4-cyclobutyl-1-methyl-pyrazolo[3,4-d]pyrimidine-4,6-diamine]
6.90 | 6.86 | Cn1ncc2c(NC3(C)CCC3)nc(NC[C@H](N)c3ccccc3)nc21 [Compound 4.84, N6-[(2R)-2-amino-2-phenyl-ethyl]-1-methyl-N4-(1-methylcyclobutyl)pyrazolo[3,4-d]pyrimidine-4,6-diamine]
7.15 | 7.29 | CC1CC(Nc2nc(NC[C@H](N)c3ccccc3)nc3c2cnn3C)C1 (stereo partly drawn) [Compound 4.87, N6-[(2R)-2-amino-2-phenyl-ethyl]-1-methyl-N4-(3-methylcyclobutyl)pyrazolo[3,4-d]pyrimidine-4,6-diamine]
6.83 | 6.95 | Cn1ncc2c(NC3CC(F)C3)nc(NC[C@H](N)c3ccccc3)nc21 (stereo partly drawn) [Compound 4.88, N6-[(2R)-2-amino-2-phenyl-ethyl]-N4-(3-fluorocyclobutyl)-1-methyl-pyrazolo[3,4-d]pyrimidine-4,6-diamine]
6.00 | 6.24 | Cn1ncc2c(N[C@H]3C[C@@H](F)C3)nc(NC[C@H](N)c3ccccc3)nc21 [Compound 4.90, N6-[(2R)-2-amino-2-phenyl-ethyl]-N4-(3-fluorocyclobutyl)-1-methyl-pyrazolo[3,4-d]pyrimidine-4,6-diamine]
6.34 | 6.46 | COC1CC(Nc2nc(NC[C@H](N)c3ccccc3)nc3c2cnn3C)C1 (stereo partly drawn) [Compound 4.92, N6-[(2R)-2-amino-2-phenyl-ethyl]-N4-(3-methoxycyclobutyl)-1-methyl-pyrazolo[3,4-d]pyrimidine-4,6-diamine]
7.14 | 7.59 | Cn1ncc2c(NC3CC(Cl)(Cl)C3)nc(NC[C@H](N)c3ccccc3)nc21 [Compound 4.93, N6-[(2R)-2-amino-2-phenyl-ethyl]-N4-(3,3-dichlorocyclobutyl)-1-methyl-pyrazolo[3,4-d]pyrimidine-4,6-diamine]
7.33 | 8.21 | Cn1ncc2c(NC3CC4(C3)CC(F)(F)C4)nc(NC[C@H](N)c3ccccc3)nc21 [Compound 4.94, N6-[(2R)-2-amino-2-phenyl-ethyl]-N4-(2,2-difluorospiro[3.3]heptan-6-yl)-1-methyl-pyrazolo[3,4-d]pyrimidine-4,6-diamine]
6.34 | 6.43 | Cn1ncc2c(NC3CC4(COC4)C3)nc(NC[C@H](N)c3ccccc3)nc21 [Compound 4.95, N6-[(2R)-2-amino-2-phenyl-ethyl]-1-methyl-N4-(2-oxaspiro[3.3]heptan-6-yl)pyrazolo[3,4-d]pyrimidine-4,6-diamine]
7.66 | 7.85 | Cn1ncc2c(NC3CC(C)(C)C3)nc(NC[C@H](N)c3ccccc3)nc21 [Compound 4.96, N6-[(2R)-2-amino-2-phenyl-ethyl]-N4-(3,3-dimethylcyclobutyl)-1-methyl-pyrazolo[3,4-d]pyrimidine-4,6-diamine]
6.63 | 6.87 | C[C@H](Nc1nc(NC[C@H](N)c2ccccc2)nc2c1cnn2C)C(F)(F)F [Compound 4.98, N6-[(2R)-2-amino-2-phenyl-ethyl]-1-methyl-N4-[(1S)-2,2,2-trifluoro-1-methyl-ethyl]pyrazolo[3,4-d]pyrimidine-4,6-diamine]
